Like-named read-outs stand apart in the source and are kept apart here.

The text below walks through data of patent publication US9783532B2, “Molecules having certain pesticidal utilities, and intermediates, compositions, and processes related thereto” (Dow AgroSciences LLC, priority 2013, dated 2017).

The test system of assay [1] is Cabbage Looper (Trichoplusia ni) ("CL"). Description: Bioassay on cabbage looper (CL), 128-well diet tray assay. The format is in vivo. To be noted: for mortality at 50 µg/cm2: 168 h, 50 μg/cm^2 on artificial diet, second instar CL larvae, 25° C., five to seven days, average of eight wells, read-out: CL % Control (or Mortality) rating; for pest or weed control at 50 µg/cm2: activity rating class, read-out: CL (Biological Results, Insect species). How it is done:
(§1) Certain molecules disclosed in this document were tested against BAW and CEW using procedures described in the following examples. In the reporting of the results, the “BAW & CL Rating Table” was used (See Table Section). BIOASSAYS ON BAW
Bioassays on CL were conducted using a 128-well diet tray assay. one to five second instar CL larvae were placed in each well (3 mL) of the diet tray that had been previously filled with 1 mL of artificial diet to which 50 μg/cm^2 of the test compound (dissolved in 50 μL of 90:10 acetone-water mixture) had been applied (to each of eight wells) and then allowed to dry. Trays were covered with a clear self-adhesive cover and held at 25° C., 14:10 light-dark for five to seven days. Percent mortality was recorded for the larvae in each well; activity in the eight wells was then averaged. The results are indicated in the table entitled “Table ABC: Biological Results” (See Table Section).

Assay [2] concerns Beet Armyworm (Spodoptera exigua) ("BAW"). Description: Bioassay on beet armyworm (BAW), 128-well diet tray assay. Format: in vivo. To be noted: for mortality at 50 µg/cm2: 168 h, 50 μg/cm^2 on artificial diet, second instar BAW larvae, 25° C., five to seven days, average of eight wells, read-out: BAW % Control (or Mortality) rating; for pest or weed control at 50 µg/cm2: activity rating class, read-out: BAW (Biological Results, Insect species). How it is done: as §1
Bioassays on BAW were conducted using a 128-well diet tray assay. one to five second instar BAW larvae were placed in each well (3 mL) of the diet tray that had been previously filled with 1 mL of artificial diet to which 50 μg/cm^2 of the test compound (dissolved in 50 μL of 90:10 acetone-water mixture) had been applied (to each of eight wells) and then allowed to dry. Trays were covered with a clear self-adhesive cover and held at 25° C., 14:10 light-dark for five to seven days. Percent mortality was recorded for the larvae in each well; activity in the eight wells was then averaged. The results are indicated in the table entitled “Table ABC: Biological Results” (See Table Section).

With `Cc1ccc(N2C(=O)CS/C2=N\C(=O)NCCCc2ccc(-c3ncn(-c4ccc(OC(F)(F)F)cc4)n3)cc2)c(C(C)C)c1` [P102, (Z)-1-(3-(2-isopropyl-4-methylphenyl)-4-oxothiazolidin-2-ylidene)-3-(3-(4-(1-(4-(trifluoromethoxy)phenyl)-1H-1,2,4-triazol-3-yl)phenyl)propyl)urea], the mortality at 50 µg/cm2 in assay [1] and in assay [2] was 50 to 100% throughout.

On to `Cc1ccc(C(C)C)c(N2CC(C)CS/C2=N\C(=O)NCCc2ccc(-c3ncn(-c4ccc(OC(F)(F)F)cc4)n3)cc2)c1` (stereo not shown) [P64], for which the mortality at 50 µg/cm2 in assay [1] and in assay [2] was 50 to 100% in each case.

With `CCn1s/c(=N\C(=O)NCCc2ccc(-c3ncn(-c4ccc(OC(F)(F)F)cc4)n3)cc2)n(-c2ccccc2C(C)C)c1=O` [FB14], the pest or weed control at 50 µg/cm2 in assay [1] (Table ABC (FB)) and in assay [2] (Table ABC (FB)) was 50 to 100% in each case.

For the molecule `Cc1ccc(C(C)C)c(N2C(=O)CS/C2=N\C(=O)NCCc2ccc(-c3ncn(-c4ccc(OC(F)(F)F)cc4)n3)cc2C)c1` [FB3, (Z)-1-(3-(2-isopropyl-5-methylphenyl)-4-oxothiazolidin-2-ylidene)-3-(2-methyl-4-(1-(4-(trifluoromethoxy)phenyl)-1H-1,2,4-triazol-3-yl)phenethyl)urea], the pest or weed control at 50 µg/cm2 in assay [1] (Table ABC (FB)) and in assay [2] (Table ABC (FB)) was 50 to 100% each time.

For `Cc1ccccc1N1C(=O)CS/C1=N\C(=O)NCCCCc1cccc(-c2ncn(-c3ccc(OC(F)(F)F)cc3)n2)c1` [P170, (Z)-1-(4-oxo-3-(o-tolyl)thiazolidin-2-ylidene)-3-(4-(3-(1-(4-(trifluoromethoxy)phenyl)-1H-1,2,4-triazol-3-yl)phenyl)butyl)urea], the mortality at 50 µg/cm2 in assay [1] was 50 to 100%; in assay [2] it was 0%.

For the molecule `COc1ccc(C(C)C)c(NC(=S)NC(=O)NCCCCc2ccc(-c3ncn(-c4ccc(OC(F)(F)F)cc4)n3)cc2)c1` [PC156], the pest or weed control at 50 µg/cm2 in assay [1] (Table ABC (PC)) and in assay [2] (Table ABC (PC)) was 50 to 100% each time.

As for `Cc1ccccc1NC(=S)NC(=O)NCCCCc1ccc(-c2ncn(-c3ccc(OC(F)(F)F)cc3)n2)cc1` [PC144, 1-(o-tolylcarbamothioyl)-3-[4-[4-[1-[4-(trifluoromethoxy)phenyl]-1H-1,2,4-triazol-3-yl]phenyl]butyl]urea], the pest or weed control at 50 µg/cm2 in assay [1] (Table ABC (PC)) and in assay [2] (Table ABC (PC)) was 50 to 100% throughout.

`Cc1ccccc1NC(=S)NC(=O)NCc1ccc(-c2ncn(-c3ccc(OC(F)(F)F)cc3)n2)cc1` [PC1, 1-(o-tolylcarbamothioyl)-3-[[4-[1-[4-(trifluoromethoxy)phenyl]-1H-1,2,4-triazol-3-yl]phenyl]methyl]urea]: the pest or weed control at 50 µg/cm2 in assay [1] (Table ABC (PC)) and in assay [2] (Table ABC (PC)) was 50 to 100% each time.

For `COc1ccc(N2C(=O)CS/C2=N\C(=O)NCc2ccc(-c3ncn(-c4ccc(OC(F)(F)F)cc4)n3)cc2)c(C)c1` [P6, (Z)-1-(3-(4-methoxy-2-methylphenyl)-4-oxothiazolidin-2-ylidene)-3-(4-(1-(4-(trifluoromethoxy)phenyl)-1H-1,2,4-triazol-3-yl)benzyl)urea], the mortality at 50 µg/cm2 in assay [1] and in assay [2] was 50 to 100% in each case.

On to `COc1ccc(C(C)C)c(N2C(=O)CS/C2=N\C(=O)NCCCCc2cccc(-c3ncn(-c4ccc(OC(F)(F)F)cc4)n3)c2)c1` [P182, (Z)-1-(3-(2-isopropyl-5-methoxyphenyl)-4-oxothiazolidin-2-ylidene)-3-(4-(3-(1-(4-(trifluoromethoxy)phenyl)-1H-1,2,4-triazol-3-yl)phenyl)butyl)urea], for which the mortality at 50 µg/cm2 in assay [1] and in assay [2] was 50 to 100% each time.

As for `CCCc1ccc(C)cc1NC(=S)NC(=O)NCCCc1ccc(-c2ncn(-c3ccc(OC(F)(F)F)cc3)n2)cc1` [PC99, 1-[(5-methyl-2-propyl-phenyl)carbamothioyl]-3-[3-[4-[1-[4-(trifluoromethoxy)phenyl]-1H-1,2,4-triazol-3-yl]phenyl]propyl]urea], in assay [2] (Table ABC (PC)), the pest or weed control at 50 µg/cm2 lay in the range of 50 to 100%.

With `COc1ccc(C(C)C)c(NC(=S)NC(=O)NCCCCc2cccc(-c3ncn(-c4ccc(OC(F)(F)F)cc4)n3)c2)c1` [PC182, 1-[(2-isopropyl-5-methoxy-phenyl)carbamothioyl]-3-[4-[3-[1-[4-(trifluoromethoxy)phenyl]-1H-1,2,4-triazol-3-yl]phenyl]butyl]urea], in assay [1] (Table ABC (PC)), the pest or weed control at 50 µg/cm2 fell in the range of 50 to 100%.

Regarding `CC(C)c1cc(F)ccc1NC(=S)NC(=O)NCCCCc1cccc(-c2ncn(-c3ccc(OC(F)(F)F)cc3)n2)c1` [PC181, 1-[(4-fluoro-2-isopropyl-phenyl)carbamothioyl]-3-[4-[3-[1-[4-(trifluoromethoxy)phenyl]-1H-1,2,4-triazol-3-yl]phenyl]butyl]urea], in assay [2] (Table ABC (PC)), the pest or weed control at 50 µg/cm2 was in the range of 0 to 50%.

Consider `Cc1ccc(NC(=S)NC(=O)NCCCCc2ccc(-c3ncn(-c4ccc(OC(F)(F)F)cc4)n3)cc2)c(C)c1` [FB16, 1-[(2,4-dimethylphenyl)carbamothioyl]-3-[4-[4-[1-[4-(trifluoromethoxy)phenyl]-1H-1,2,4-triazol-3-yl]phenyl]butyl]urea], for which the pest or weed control at 50 µg/cm2 in assay [1] (Table ABC (FB)) was 50 to 100%.

Regarding `COc1ccc(NC(=S)NC(=O)NCCc2cccc(-c3ncn(-c4ccc(OC(F)(F)F)cc4)n3)c2)c(C)c1` [PC87, 1-[(4-methoxy-2-methyl-phenyl)carbamothioyl]-3-[2-[3-[1-[4-(trifluoromethoxy)phenyl]-1H-1,2,4-triazol-3-yl]phenyl]ethyl]urea], the pest or weed control at 50 µg/cm2 in assay [1] (Table ABC (PC)) is 50 to 100%.

Consider `Cc1ccc(NC(=S)NC(=O)NCCCCc2cccc(-c3ncn(-c4ccc(OC(F)(F)F)cc4)n3)c2)c(C(C)C)c1` [PC180, 1-[(2-isopropyl-4-methyl-phenyl)carbamothioyl]-3-[4-[3-[1-[4-(trifluoromethoxy)phenyl]-1H-1,2,4-triazol-3-yl]phenyl]butyl]urea], for which the pest or weed control at 50 µg/cm2 in assay [2] (Table ABC (PC)) was in the range of 0 to 50%.

Consider `Cc1ccc(C(C)C)c(NC(=S)NC(=O)NCc2ccc(-c3ncn(-c4ccc(OC(F)(F)F)cc4)n3)cc2)c1` [F35], for which, in assay [2], the mortality at 50 µg/cm2 is 50 to 100%.

With `Cc1ccc(-n2c(C)cs/c2=N\C(=O)NCc2ccc(-c3ncn(-c4ccc(OC(F)(F)F)cc4)n3)cc2)c(C(C)C)c1` [P20, (Z)-1-(3-(2-isopropyl-4-methylphenyl)-4-methylthiazol-2(3H)-ylidene)-3-(4-(1-(4-(trifluoromethoxy)phenyl)-1H-1,2,4-triazol-3-yl)benzyl)urea], the mortality at 50 µg/cm2 in assay [1] was in the range of 50 to 100%.

With `Cc1ccc(C(C)C)c(N2C(=O)CS/C2=N\C(=O)NCCc2cccc(-c3ncn(-c4ccc(OC(F)(F)F)cc4)n3)c2)c1` [P81], the mortality at 50 µg/cm2 in assay [1] fell in the range of 50 to 100%.

As for `Cc1ccc(NC(=S)NC(=O)NCCCc2ccc(-c3ncn(-c4ccc(OC(F)(F)F)cc4)n3)cc2)c(C(C)C)c1` [PC102, 1-[(2-isopropyl-4-methyl-phenyl)carbamothioyl]-3-[3-[4-[1-[4-(trifluoromethoxy)phenyl]-1H-1,2,4-triazol-3-yl]phenyl]propyl]urea], the pest or weed control at 50 µg/cm2 in assay [2] (Table ABC (PC)) fell in the range of 50 to 100%.

`CC(C)c1cc(F)ccc1NC(=S)NC(=O)NCCCc1ccc(-c2ncn(-c3ccc(OC(F)(F)F)cc3)n2)cc1` [PC103, 1-[(4-fluoro-2-isopropyl-phenyl)carbamothioyl]-3-[3-[4-[1-[4-(trifluoromethoxy)phenyl]-1H-1,2,4-triazol-3-yl]phenyl]propyl]urea]: the pest or weed control at 50 µg/cm2 in assay [2] (Table ABC (PC)) was in the range of 0 to 50%.
